We go through 18 molecules from ChEMBL document CHEMBL4765430, “Endeavors towards transformation of M. tuberculosis thymidylate kinase (MtbTMPK) inhibitors into potential antimycobacterial agents” (Eur J Med Chem, 2020).

The nature of data set [1]: Inhibition of wild-type Mycobacterium tuberculosis thymidylate kinase expressed in Escherichia coli BLi5 competent cells using dTMP as substrate by lactate dehydrogenase, pyruvate kinase and nucleoside diphosphate kinase coupled spectrophotometric method.
Data set [2] relates to Mycobacterium tuberculosis. Put plainly: Antitubercular activity against Mycobacterium tuberculosis H37Ra incubated for 7 to 14 days under 7H9/glucose medium. The data set is classed as functional. The settings on record: time 7-14 day.
The test system of data set [3] is Mycobacterium tuberculosis. Put plainly: Antitubercular activity against Mycobacterium tuberculosis H37Rv ATCC 27294 incubated for 7 to 14 days under 7H9/glucose medium. It is filed as functional. The settings on record: time 7-14 day.
Data set [4] is described as follows: Cytotoxicity against human MRC5 cells measured after 24 hrs by neutral red uptake assay. The data set is classed as cell-based.
In data set [5] the test system is Mycobacterium tuberculosis. Put plainly: Antitubercular activity against Mycobacterium tuberculosis H37Rv ATCC 27294 incubated for 7 to 14 days under GAST (Fe(+)) medium. It is filed as functional. To be noted: time 7-14 day.
The subject of data set [6] is Mycobacterium tuberculosis. Put plainly: Antitubercular activity against Mycobacterium tuberculosis H37Rv ATCC 27294 incubated for 7 to 14 days under GAST (Fe(-)) medium. It is filed as functional. The settings on record: time 7-14 day.
A short description of data set [7]: Stability of compound in pH 6.6 ammonium bicarbonate-formic acid buffer assessed as parent compound remaining measured after 24 hrs by LC-MS analysis. It is filed as physicochemical. To be noted: read-out: Stabilty.
The nature of data set [8]: Stability of compound in pH 6.6 ammonium bicarbonate-formic acid buffer assessed as degradation measured up to 6 hrs by LC-MS analysis. To be noted: read-out: Drug degradation. It is filed as physicochemical.
A short description of data set [9]: Stability of compound in pH 6.6 ammonium bicarbonate-formic acid buffer assessed as hydrolysis measured after 24 hrs by LC-MS analysis. To be noted: pH 6.6, 24 h. It is filed as physicochemical.

The structures appear in SMILES notation. In brackets after ≈: the same amount, converted by molar mass.

By IC50 is commonly meant the concentration needed to halve the response being measured. In general, MIC99 refers to the lowest concentration that inhibits either 99% of growth or 99% of the strains tested, depending on the study. Low values mean higher susceptibility, high ones lower susceptibility. As to `Cc1cn(C2CCN(Cc3ccc(Oc4ccccc4)cc3)CC2)c(=O)[nH]c1=O`, the IC50 in data set [1] (read-out: IC50) is 29 µM. In data set [2], this molecule returned an MIC99 above 64 µM.
As a reminder, the CC50 is the concentration that lowers cell viability or growth by half. A high value points to lower toxicity to the cells. As to `Cc1cn(C2CCN(Cc3cc(Oc4ccc(C(=O)O)c(O)c4)c4ccccc4n3)CC2)c(=O)[nH]c1=O`, the MIC99 in data set [3] was above 100 µM; in [5] it was 100 µM (≈ 50.3 µg/mL); in data set [6] it was at least 100 µM. Besides, the IC50 in [1] (read-out: IC50) is 1.3 µM. The CC50 at 24 h in data set [4] is above 64 µM.
With `CCc1nc2ccc(Cl)cn2c1C(=O)NCc1ccc(N2CCC(n3cc(C)c(=O)[nH]c3=O)CC2)cc1`, the MIC99 is 4.7 µM (≈ 2.45 µg/mL) in [3] and 2.3 µM (≈ 1.2 µg/mL) in data set [5]. Also, the IC50 in data set [1] (read-out: IC50) turned out to be 47 µM. Besides, the CC50 at 24 h in [4] is above 64 µM.
For `Cc1cn(C2CCN(Cc3ccc4cccc(O)c4n3)CC2)c(=O)[nH]c1=O`, the MIC99 in data set [3] is 75 µM (≈ 27.5 µg/mL); in data set [5] it was above 100 µM; in [6], above 100 µM. Moreover, in data set [1] (read-out: IC50), the concentration for half-maximal inhibition (IC50) is 23 µM. Also, the midpoint of cytotoxicity in [4], the CC50 at 24 h, lay at 54 µM.
On to `Cc1cn(C2CCN(Cc3cc(OCCOC(=O)c4ccc(O)c(O)c4)c4ccccc4n3)CC2)c(=O)[nH]c1=O`, for which the values for the MIC99 in [3], in [5] and in [6] were at least 100 µM, above 100 µM and above 100 µM, respectively. Besides, in data set [1] (read-out: IC50), the half-inhibitory concentration (IC50) turned out to be 0.14 µM. Besides, the half-maximal cytotoxic concentration (CC50) at 24 h in [4] came to 6.39 µM.
Consider `Cc1cn(C2CCN(Cc3ccc(CNC(=O)c4cc([N+](=O)[O-])cc([N+](=O)[O-])c4)cc3)CC2)c(=O)[nH]c1=O`, for which the MIC99 amounted to 9.4 µM (≈ 4.91 µg/mL) in data set [3], 9.4 µM (≈ 4.91 µg/mL) in [5] and 6.25 µM (≈ 3.27 µg/mL) in [6]. Besides, the IC50 in [1] (read-out: IC50) stood at 48 µM. In data set [4], this molecule gave a cytotoxic concentration (CC50) at 24 h above 64 µM.
Turning to `Cc1cn(C2CCN(Cc3cc(Oc4ccc(OC(=O)c5ccc(O)c(O)c5)cc4)c4ccccc4n3)CC2)c(=O)[nH]c1=O`, the remaining at 24 h in data set [7] was above 70%. The MIC99 was above 50 µM in data set [3] and 37 µM (≈ 22 µg/mL) in data set [5]. Besides, the IC50 in data set [1] (read-out: IC50) amounted to 0.18 µM. Also, the degraded at 6 h in data set [8] was below 10%. In addition, the Stabilty entry in data set [9] is recorded as “Stable”.
Consider `Cc1cn(C2CCN(Cc3cc(Oc4ccc(C(=O)NO)cc4)c4ccccc4n3)CC2)c(=O)[nH]c1=O`, for which the MIC99 in data set [3] is above 50 µM; in data set [5], 50 µM (≈ 25.1 µg/mL). Besides, the IC50 in data set [1] (read-out: IC50) stood at 1 µM. In data set [4], this molecule displayed a CC50 at 24 h of 32.2 µM.
As to `CCc1nc2ccc(Cl)cn2c1C(=O)N1CCC(n2cc(C)c(=O)[nH]c2=O)CC1`, the MIC99 in data set [3], in data set [5] and in [6] was above 100 µM in each case. Also, in [1] (read-out: IC50), the IC50 was 879 µM. In addition, the CC50 at 24 h in [4] is above 64 µM.
Consider `Cc1cn(C2CCN(Cc3cc(Oc4ccc(/C=N/NC(=S)S)c(O)c4)c4ccccc4n3)CC2)c(=O)[nH]c1=O`, for which, in data set [7], the remaining at 24 h is above 70%. In addition, the MIC99 is above 100 µM in data set [3], 100 µM (≈ 57.7 µg/mL) in [5] and 25 µM (≈ 14.4 µg/mL) in data set [6]. Further, in data set [1] (read-out: IC50), the IC50 turned out to be 0.31 µM. For the same molecule, the degraded at 6 h in [8] is below 10%. For the same molecule, in data set [4], the CC50 at 24 h was 1.45 µM.
For `Cc1cn(C2CCN(Cc3cc(NCCOC(=O)c4ccc(O)c(O)c4)c4ccccc4n3)CC2)c(=O)[nH]c1=O`, the remaining at 24 h in data set [7] is above 70%. The results for the MIC99 in data set [3], in data set [5] and in data set [6] were above 100 µM, above 100 µM and 100 µM (≈ 54.6 µg/mL), respectively. For the same molecule, the half-inhibitory concentration (IC50) in [1] (read-out: IC50) was 0.24 µM. The molecule further displayed a half-maximal cytotoxic concentration (CC50) at 24 h in data set [4] above 64 µM.
As for `Cc1cn(C2CCN(Cc3cc(Oc4ccc(O)cc4)c4ccccc4n3)CC2)c(=O)[nH]c1=O`, the MIC99 in data set [3] is at least 100 µM; in data set [5] it was above 100 µM; in data set [6] it was at least 100 µM. For the same molecule, the concentration for half-maximal inhibition (IC50) in data set [1] (read-out: IC50) was 0.83 µM. This molecule also registered a CC50 at 24 h in data set [4] above 64 µM.
Consider `Cc1cn(C2CCN(Cc3cc(=O)c4ccccc4[nH]3)CC2)c(=O)[nH]c1=O`, for which the MIC99 in data set [3], in data set [5] and in data set [6] was above 100 µM throughout. For the same molecule, the 50% inhibitory concentration (IC50) in [1] (read-out: IC50) amounted to 7.8 µM. The CC50 at 24 h in data set [4] is above 64 µM.
`Cc1cn(C2CCN(c3ccc(CNC(=O)c4ccc([N+](=O)[O-])cc4[N+](=O)[O-])cc3)CC2)c(=O)[nH]c1=O`: the values for the MIC99 in [3], in data set [5] and in data set [6] were 9.4 µM (≈ 4.78 µg/mL), 0.78 µM (≈ 0.397 µg/mL) and 1.2 µM (≈ 0.61 µg/mL), respectively. In [1], the IC50 entry is “Nd(Unstable)”. In data set [4], this molecule displayed a cytotoxic concentration (CC50) at 24 h above 64 µM.
Consider `Cc1cn(C2CCN(Cc3cccc(-c4ccccn4)n3)CC2)c(=O)[nH]c1=O`, for which the MIC99 in data set [3] is 12.5 µM (≈ 4.72 µg/mL); in [5] it was above 100 µM; in data set [6], above 100 µM. The concentration for half-maximal inhibition (IC50) in data set [1] (read-out: IC50) came to 34 µM. For the same molecule, in [4], the CC50 at 24 h is above 64 µM.
In the case of `Cc1cn(C2CCN(Cc3cc(OCCO)c4ccccc4n3)CC2)c(=O)[nH]c1=O`, the MIC99 in data set [3], in data set [5] and in data set [6] was above 100 µM throughout. In data set [1] (read-out: IC50), the IC50 came out at 2.4 µM. The same molecule showed a CC50 at 24 h in data set [4] above 64 µM.
For `Cc1cn(C2CCN(Cc3cc(NCCO)c4ccccc4n3)CC2)c(=O)[nH]c1=O`, the MIC99 in data set [3], in data set [5] and in [6] was above 100 µM throughout. Moreover, the IC50 in [1] (read-out: IC50) is 0.53 µM. The same molecule showed a CC50 at 24 h in data set [4] above 64 µM.
Turning to `NNC(=O)c1ccncc1` [ISONIAZID], the MIC99 in data set [3], in data set [5] and in data set [6] was 0.15 µM (≈ 0.0206 µg/mL) each time.
